In patent US10118966B2, “Anti-EGFR monoclonal antibody, methods of making, and uses thereof in the treatment of cancer” (Shanghai Biomabs Pharmaceuticals Co., Ltd., priority 2015, dated 2018):
Where two headings read alike, the source gives them in different places.

Experiments:
[1] = system: metastatic colorectal cancer; assay: CMAB009 Ph2/3 trial; type: in vivo, human
Protocol: 501 patients were identified and randomized in a 2:1 manner to group 1 or group 2. […] Patients in both groups were treated until the disease progressed or the patient reached an unacceptable level of toxicity.
Patients were evaluated for radiologic response in both group 1 and group 2. […] Note the overall response rate (ORR) in Table 6 was determined according to the sum of the rate of CR and PR, and the disease control rate (DCR) was determined according to the sum of the rates of CR, PR, and SD.

[2] = system: metastatic colorectal cancer; settings: EPIC, cited from earlier work
[3] = radiologic response, n = 337 / n = 164
[4] = radiologic response, n = 648 / n = 650

Compound: CCc1c2c(nc3ccc(OC(=O)N4CCC(N5CCCCC5)CC4)cc13)-c1cc3c(c(=O)n1C2)COC(=O)[C@]3(O)CC [Irinotecan monotherapy, irinotecan]
- Time to disease progression ([1]; CMAB009 Ph2/3 trial): 3.2 months
- Test drug-related death AE, no. of patients ([1]; N = 342 / N = 170): 0
- At least one ADR, % ([1]; human, in vivo): (74.1%)
- At least one ADR, no. of patients ([1]; human, in vivo): 126
- At least one AE which lead to stop drug treatment, % ([1]; human, in vivo): (15.9%)
- At least one AE which lead to stop drug treatment, no. of patients ([1]; human, in vivo): 27
- At least one AE, % ([1]; human, in vivo): (87.1%)
- At least one AE, no. of patients ([1]; human, in vivo): 148
- At least one Level III or above ADR, % ([1]; human, in vivo): (5.9%)
- At least one Level III or above ADR, no. of patients ([1]; human, in vivo): 10
- At least one Level III or above AE, % ([1]; human, in vivo): (7.1%)
- At least one Level III or above AE, no. of patients ([1]; human, in vivo): 12
- At least one Level III or above important AE, % ([1]; human, in vivo): (6.5%)
- At least one Level III or above important AE, no. of patients ([1]; human, in vivo): 11
- At least one SAE, % ([1]; human, in vivo): (4.7%)
- At least one SAE, no. of patients ([1]; human, in vivo): 8
- At least one important AE, % ([1]; human, in vivo): (70.6%)
- At least one important AE, no. of patients ([1]; human, in vivo): 120
- At least one test drug-related SAE, % ([1]; human, in vivo): (0.6%)
- At least one test drug-related SAE, no. of patients ([1]; human, in vivo): 1
- Grade 3-4 adverse events: Abdominal pain, no. of patients ([1]; human, in vivo): 0
- Grade 3-4 adverse events: Acne-like rash, no. of patients ([1]; human, in vivo): 0
- Grade 3-4 adverse events: Anemia, no. of patients ([1]; human, in vivo): 3
- Grade 3-4 adverse events: Anemia, rate in parentheses ([1]; human, in vivo): 1.8
- Grade 3-4 adverse events: Any, no. of patients ([1]; human, in vivo): 57
- Grade 3-4 adverse events: Asthenia, no. of patients ([1]; human, in vivo): 6
- Grade 3-4 adverse events: Asthenia, rate in parentheses ([1]; human, in vivo): 3.7
- Grade 3-4 adverse events: Diarrhea, no. of patients ([1]; human, in vivo): 12
- Grade 3-4 adverse events: Diarrhea, rate in parentheses ([1]; human, in vivo): 7.3
- Grade 3-4 adverse events: Fever, no. of patients ([1]; human, in vivo): 1
- Grade 3-4 adverse events: Fever, rate in parentheses ([1]; human, in vivo): 0.9
- Grade 3-4 adverse events: Nausea and vomiting, no. of patients ([1]; human, in vivo): 16
- Grade 3-4 adverse events: Nausea and vomiting, rate in parentheses ([1]; human, in vivo): 9.8
- Grade 3-4 adverse events: Neutropenia, no. of patients ([1]; human, in vivo): 14
- Grade 3-4 adverse events: Neutropenia, rate in parentheses ([1]; human, in vivo): 8.5
- Grade 3-4 adverse events: Stomatitis, no. of patients ([1]; human, in vivo): 0
- Grade 3-4 adverse events: Thrombocytopenia, no. of patients ([1]; human, in vivo): 0
- Complete response, no. of patients [1, 3]: 1
- Complete response, rate in parentheses [1, 3]: (0.6)
- Partial response, no. of patients [1, 3]: 20
- Partial response, rate in parentheses [1, 3]: (12.2)
- Progressive disease, no. of patients [1, 3]: 44
- Progressive disease, rate in parentheses [1, 3]: (26.8)
- Stable disease, no. of patients [1, 3]: 86
- Stable disease, rate in parentheses [1, 3]: (52.4)
- Unable to evaluate, no. of patients [1, 3]: 13
- Unable to evaluate, rate in parentheses [1, 3]: (7.9)
- Overall response rate, no. of patients ([1]; sum of CR and PR, n = 337 / n = 164): 21
- Disease control rate, no. of patients ([1]; sum of CR, PR and SD, n = 337 / n = 164): 107
- Overall response rate, rate in parentheses ([1]; sum of the rate of CR and PR, n = 337 / n = 164): (12.8
- Disease control rate, rate in parentheses ([1]; sum of the rates of CR, PR, and SD, n = 337 / n = 164): (65.2
- Overall survival [2]: 10.0 months
- Time to disease progression [2]: 2.6 months
- Disease control rate, no. of patients ([2]; n = 648 / n = 650): 298
- Disease control rate, rate in parentheses ([2]; n = 648 / n = 650): (45.8)
- Overall response rate, no. of patients ([2]; n = 648 / n = 650): 27
- Overall response rate, rate in parentheses ([2]; n = 648 / n = 650): (4.2
- Complete response, no. of patients [2, 4]: 1
- Complete response, rate in parentheses [2, 4]: (0.2)
- Partial response, no. of patients [2, 4]: 26
- Partial response, rate in parentheses [2, 4]: (4.0)
- Progressive disease, no. of patients [2, 4]: 243
- Progressive disease, rate in parentheses [2, 4]: (37.4)
- Stable disease, no. of patients [2, 4]: 271
- Stable disease, rate in parentheses [2, 4]: (41.7)
- Unable to evaluate, no. of patients [2, 4]: 72
- Unable to evaluate, rate in parentheses [2, 4]: (11.1)
